{"source": "patent US6011000A", "about": "“Compositions for the treatment of blood disorders” (priority 1995, dated 2000)", "key": {"[1]": {"tested_on": "erythroid cells (peripheral blood)", "assay": "Erythroid cell viability by fluorescent staining (Calcein-AM), FIG. 2", "type": "cell-based, human", "conditions": "0.5 mM, vs untreated controls", "protocol": "FIG. 2 Peripheral blood cell viability after incubation with arginine butyrate, dihydrocinnamic acid, phenoxyacetic acid and butyric acid ethyl ester.\nCompositions were tested for the ability to directly stimulate erythroid cell growth. Cell growth stimulation is a useful property for an agent to be used to treat anemias and distinguishes such agents from the cytotoxic drugs currently being tested for treatment of hemoglobinopathies. Cell viability analyses were performed using fluorescent staining to detect living cells. Cells were in log phase of growth in 6-well dishes when used in proliferation assays. For enumeration of living cells, wells were washed once with medium to remove nonadherent or dead cells. Remaining live cells were labeled with 2 μM 2',7'-bis-(carboxyethyl)-5-(and 6)-carboxy-fluorescein acetoxy-methyl ester (Calcein-AM) (Molecular Probes; Eugene, Oreg.) for 20 minutes at 37° C. and washed once. Fluorescence intensity of live cells was read on a CytoFluor 2300 Fluorescence Plate Scanner (Millipore; Bedford, Mass.) at excitation and emission wavelengths of 485 and 530 nm, respectively. The fluorescence intensity of a well was proportional to the number of living cells in the well. Background fluorescence was measured separately for each plate and subtracted from all readings. Each experiment was performed in triplicate or quadruplicate. The standard deviation (SD) of repetitive readings was less than 30% of the mean. Results are depicted in FIG. 2."}, "[2]": {"tested_on": "BFU-e (burst forming unit-erythroid)", "assay": "BFU-e stimulation (colony growth) in cultured peripheral blood mononuclear cells", "type": "cell-based", "conditions": "Homo sapiens, PBMC; 0.1 mM; read-out: more BFU-e colonies from the same number of mononuclear cells than control cultures", "protocol": "Peripheral blood was collected from normal volunteers and patients with anemia due to sickle cell disease or thalassemia Mononuclear cells were isolated by Ficoll-Hypaque (Pharmacia Biotech; Piscataway, N.J.) centrifugation and cultured in Iscove's Modified Dulbecco's Media (IMDM; GIBCO/BRL; Grand Island, N.Y.) supplemented with 10% fetal calf serum, 300 μg/ml glutamine, 3 units/ml IL 3 (Amgen; Thousand Oaks, Calif.), and 2 units/ml erythropoietin (Terry Fox Labs; Vancouver, B.C.). Chemical compounds were obtained from Sigma Chemical (St. Louis, Mo.) or Aldrich Chemical (Milwaukee, Wis.), unless otherwise indicated, and formulated into pharmaceutical compositions by dissolving in aqueous solutions of media or sterile water pH adjusted to about 7.4. Solutions were sterilized by passage at least once through 0.22 micron Nalgene filters and added to cell cultures at final concentrations that are pharmaceutically achievable in vivo (typically between about 0.1 mM to 2.0 MM). Cells were incubated with compounds for between 13-14 days at 37° C. in humidified 5% CO2, and fed and passed, as necessary. Colony growth, proportion of fetal globin-expressing cells and amounts of fetal globin production were assayed. Results are presented in Table 1 as BFU-e stimulation (colony growth). […]"}, "[3]": {"tested_on": "K562", "assay": "Growth of human erythroid cell line K562", "type": "cell-based", "protocol": "Such activities might limit their utility for treatment of anemias such as occur in thalassemia, but alternatively would be useful for anticancer effects. […]\nCell viability analyses were performed using fluorescent staining to detect living cells. Cells were in log phase of growth in 6-well dishes when used in proliferation assays. For enumeration of living cells, wells were washed once with medium to remove nonadherent or dead cells. Remaining live cells were labeled with Calcein-AM for 20 minutes at 37° C. and washed once. Fluorescence intensity of adherent live cells was read on a CytoFluor 2300 Fluorescence Plate Scanner (Millipore; Bedford, Mass.) at excitation and emission wavelengths of 485 and 530 nm, respectively. The fluorescence intensity of a well was proportional to the number of living cells in the well. Background fluorescence was measured separately for each plate and subtracted from all readings. Each experiment was performed in triplicate or quadruplicate. The standard deviation (SD) of repetitive readings was less than 30% of the mean.\nAt higher concentrations, still easily achievable in vivo, arginine butyrate (0.5 mM) and dihydrocinnamic acid (greater than 0.5 mM) inhibited growth of this tumor cell line by approximately 50%. Therefore, these compounds are also useful as anti-tumor agents."}, "[4]": {"tested_on": "anemic baboon", "assay": "In vivo reticulocyte proliferation, globin expression and blood counts in anemic (phlebotomized) baboons", "conditions": "4 days", "protocol": "Experiments were performed to determine if administration of the chemical compositions could induce fetal globin gene expression in an in vivo model similar to humans (S. P. Perrine et al., Brit. J. Haematol. 88:555-61, 1994). Briefly, chemicals were prepared as sterile pharmaceutical solutions in pH adjusted sterile water. A variety of chemical compositions were administered sequentially to some baboons. After administration of one compound, a wash-out period with no compound administration was maintained until reticulocytes returned to base line prior to administration of the next compound. This was done, at least partly, to compare the magnitude of response which occurred within the same individual animal to different compounds.\nBriefly, juvenile female baboons (2 years old) were catheterized with arterial and venous catheters and phlebotomized gradually every day to maintain a moderate anemia of 7.0 to 7.5 grams hemoglobin/dl. Fetal reticulocytes, the newly produced red blood cells containing fetal globin, were assayed using a monoclonal antibody against fetal globin (HbF) as described by G. Dover et al. (Blood 67:735-38, 1986). Briefly, blood was stained with two antibodies, one specific for reticulocytes and another against fetal globin protein. The amount of antibody bound cells was determined by FACS analysis. Globin chain synthesis was assayed as described by J. B. Clegg et al. (J. Mol. Biol. 19:91-108, 1966). Briefly, reticulocytes were radio-labeled with ^3 H-leucine which was incorporated in equal proportions into actively synthesized globin chains. After incubation in leucine-free media, cells were washed, and globin proteins were separated and purified by column chromatography. Radioactivity incorporated into each peak is compared and the ratios of gamma to gamma plus beta globin calculated. Each animal served as its own control with baseline monitoring assays performed for 4-6 weeks before any drug was administered. Phlebotomy was continued daily, so that peripheral HbF levels in the animals were not considered to be accurate over the short treatment time-frames and were not monitored. Safety monitoring was performed by frequent physical examinations, quantitation of food eaten, activity and frequent chemistry and hematology monitoring. Complete blood counts were assayed before, during and after treatment. Results presented were not adjusted to account for the daily phlebotomy."}, "[5]": {"tested_on": "fetal globin (gamma globin)", "assay": "Fetal globin expression in erythroid progenitor cells from cord blood", "type": "cell-based, human", "protocol": "Compositions were tested for activity in inducing fetal globin expression and protein production in erythroid progenitor cells cultured from human cord blood and analyzed as described by S. P. Perrine et al. (Blood 74: 454-60, 1989). Briefly, mononuclear cells were cultured in IMDM with 30% fetal calf serum and 2 units erythropoietin per ml to induce erythroid differentiation. Colonies were harvested on day 12-13, incubated with radio-labelled (^3 H) leucine, and further incubated in leucine-free media, still in the presence of compounds, overnight. Globin composition in the erythroid cells was analyzed by laser densitometry of electrophoretically separated globin chains stained with Coomassie blue, and by autoradiography. Treated cells were incubated for 12-13 days (Table 2, Experiments A and B) or overnight (Table 2, Experiment C) in the presence of the indicated compounds and compared to untreated control cells cultured from the same human subject."}}}
{"smiles": "O=C(O)CCc1ccccc1", "note": "[DHC, Dihydrocinnamic acid]", "values": [{"measurement": "erythroid cell growth and proliferation", "setting": "[1]", "result": "either had no effect or stimulated erythroid cell growth and proliferation"}, {"measurement": "activation at 100 µM", "setting": "[2]", "result": 124, "unit": "%"}, {"measurement": "growth of K562", "setting": "[3]; 0.5 mM, over 3 days", "result": "either did not inhibit, or slightly enhanced growth"}, {"measurement": "growth inhibition of K562", "setting": "[3]; greater than 0.5 mM", "result": "approximately 50%"}, {"measurement": "red blood cell count", "setting": "[4]; 1,000 mg/kg/day i.v., from 2.3", "result": "2.73 10^6 cells/μl"}, {"measurement": "Total hemoglobin", "setting": "[4]; 1,000 mg/kg/day i.v., from 6.6", "result": 7.3, "unit": "grams/dl"}, {"measurement": "packed red blood cell volume", "setting": "[4]; 1,000 mg/kg/day i.v., from 20.9%", "result": "22.7 % of the blood"}, {"measurement": "Fetal reticulocytes", "setting": "[4]; 300 to 500 mg/kg per day infused, from 10%", "result": 17, "unit": "%"}, {"measurement": "Gamma/(Gamma + Beta)", "setting": "[5]; Exp. A, 0.1 mM, 12-13 days, untreated 76.0%", "result": 88.0, "unit": "%"}, {"measurement": "Gamma/(Gamma + Beta)", "setting": "[5]; Exp. C, 0.1 mM, overnight, untreated 52.0%", "result": 76.0, "unit": "%"}, {"measurement": "Gamma/(Gamma + Beta)", "setting": "[5]; Exp. C, 0.2 mM, overnight, untreated 52.0%", "result": 71.9, "unit": "%"}, {"measurement": "Gamma/(Gamma + Beta)", "setting": "[5]; Exp. C, 0.5 mM, overnight, untreated 52.0%", "result": 71.3, "unit": "%"}]}
